Like-named read-outs stand apart in the source and are kept apart here.
Legend:
[1] = biological target: T1, purified catalytic domain of recombinant human TACE (rhTACEc) (Homo sapiens, UniProt P78536, N452Q/S266A); assay: TACE kinetic assay: cleavage of internally quenched peptide substrate TNF-FRET 2 (Ki); format: biochemical; details: TNF-FRET 2 substrate
T1 construct: 6xHis (C); made in house; host or cells: baculovirus/Hi5 insect cells

[2] = Area under the curve determinations of plasma levels in rats (rrAUC), oral 10 mg/kg; format: in vivo; details: for AUC: rat, read-out: RR AUC (rapid rat AUC, rrAUC)
[3] = system: TNF-α production from human whole blood; assay: Inhibition of TNF-α production from human whole blood (hWBA), LPS stimulated, ELISA; format: cell-based; details: TNF-α by ELISA, read-out: hWBA (IC50)
[4] = Homo sapiens, 3.5 h, human whole blood diluted 1:1, LPS stimulated, 3.5 h
[5] = Homo sapiens, LPS-stimulated human whole blood
[6] = plasma, blood collected 0.5-6 h post-dosing
[7] = Homo sapiens, human whole blood diluted 1:1, LPS stimulated

T1 sequence (P78536 215-477 S266A/N452Q): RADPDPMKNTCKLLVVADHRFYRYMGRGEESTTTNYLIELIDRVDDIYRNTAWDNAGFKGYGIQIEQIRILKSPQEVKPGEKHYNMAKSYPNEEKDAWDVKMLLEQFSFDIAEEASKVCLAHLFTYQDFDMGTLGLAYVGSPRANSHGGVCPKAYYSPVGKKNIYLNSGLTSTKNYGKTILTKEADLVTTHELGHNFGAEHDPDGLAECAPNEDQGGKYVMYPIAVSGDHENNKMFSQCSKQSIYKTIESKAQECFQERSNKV

SMILES	AUC ([2]; plasma 0.5-6 h post-dosing)	IC50 [3, 4]	Ki ([1]; read-out: Ki)	AUC ([2]; plasma 0.5-6 h)	IC50 [3, 5]	also measured
COc1ccc2c(c1)C(=O)N(C[C@@]1(c3cc4cnc(N5CCNC5=O)cc4o3)NC(=O)NC1=O)C2 [Compound 2252]	1.18 µM·h	206 nM				Ki ([1]; Ki): 1.79 nM
COc1ccc2c(c1)C(=O)N(C[C@@]1(c3cc4c(o3)CN(C)CC4)NC(=O)NC1=O)C2 [Compound 2264]	0.623 µM·h	1180 nM	0.417 nM			
COc1ccc2c(c1F)C(=O)N(C[C@@]1(c3cc4nc(C5(C)NC(=O)NC5=O)ccc4o3)NC(=O)NC1=O)C2 (mixture of isomers) [Compound 1901]			0.49 nM	1.07 µM·h	100 nM	
COc1ccc2c(c1)C(=O)N(C[C@@]1(c3cc4cc(C(=O)NCCN(C)C)c(F)cc4o3)NC(=O)NC1=O)C2 [Compound 1273]	0.037 µM·h	181 nM	0.59 nM			
COc1ccc2c(c1)C(=O)N(C[C@@]1(c3cc4ccc(-c5nnco5)cc4o3)NC(=O)NC1=O)C2 [Compound 2189]	0.988 µM·h	672 nM				Ki ([1]; Ki): 0.536 nM
COc1ccc2c(c1F)C(=O)N(C[C@@]1(c3cc4c5c(ccc4o3)CNC5=O)NC(=O)NC1=O)C2 [Compound 2505]			0.6 nM			AUC [2, 6]: 1.12 µM·h; IC50 [3, 7]: 151 nM
COc1ccc2c(c1F)C(=O)N(C[C@@]1(c3cc4ncccc4o3)NC(=O)NC1=O)C2 [Compound 2203]	3.92 µM·h	200 nM	0.468 nM			
COc1ccc2c(c1)C(=O)N(C[C@@]1(c3cc4cnc(C)cc4o3)NC(=O)NC1=O)C2 [Compound 2258]	19.1 µM·h	345 nM	0.366 nM			
COc1ccc2c(c1)C(=O)N(C[C@@]1(c3cc4nc(N5CCCC(C(N)=O)C5)ccc4o3)NC(=O)NC1=O)C2 (stereo partly drawn) [Compound 1515]			0.7 nM	0.145 µM·h	245 nM	
COc1ccc2c(c1)C(=O)N(C[C@@]1(c3cc4nc(-c5ccc(C#N)nc5)ccc4o3)NC(=O)NC1=O)C2 [Compound 2472]			0.745 nM			AUC [2, 6]: 0.536 µM·h; IC50 [3, 7]: 1610 nM
COc1ccc2c(c1)C(=O)N(C[C@@]1(c3cc4cnc(-c5cccc(C#N)c5)cc4o3)NC(=O)NC1=O)C2 [Compound 2431]			0.8 nM			RR AUC (rapid rat AUC, rrAUC) ([2]; blood collected 0.5-6 h post-dosing): 10.648 µM·h; IC50 ([3]; human whole blood diluted 1:1, LPS stimulated): 8420 nM
COc1ccc2c(c1)C(=O)N(C[C@@]1(c3cc4nc(N5CCN(C)CC5)ccc4o3)NC(=O)NC1=O)C2 [Compound 2108]	0.43 µM·h	150 nM				Ki ([1]; Ki): 0.613 nM
COc1ccc2c(c1)C(=O)N(C[C@@]1(c3cc4cc(-c5ccccc5F)ncc4o3)NC(=O)NC1=O)C2 [Compound 2240]	12.8 µM·h	3640 nM	0.714 nM			
COc1ccc2c(c1)C(=O)N(C[C@@]1(c3cc4cc(-c5cccnc5)ncc4o3)NC(=O)NC1=O)C2 [Compound 2239]	9.84 µM·h	718 nM	0.669 nM			
COc1ccc2c(c1F)C(=O)N(C[C@@]1(c3cc4cc5c(c(C)c4o3)C(=O)NC5)NC(=O)NC1=O)C2 [Compound 2497]			0.29 nM			AUC [2, 6]: 1.05 µM·h; IC50 [3, 7]: 673 nM
COc1ccc2c(c1)C(=O)N(C[C@@]1(c3cc4ccc(NC(C)=O)nc4o3)NC(=O)NC1=O)C2 [Compound 2249]	0.974 µM·h	178 nM	0.65 nM			
COc1ccc2c(c1F)C(=O)N(C[C@@]1(c3cc4nc(N5C[C@H](O)CC5=O)ccc4o3)NC(=O)NC1=O)C2 [Compound 1511]			0.4 nM	4.01 µM·h	93.3 nM	
COc1ccc2c(c1)C(=O)N(C[C@@]1(c3cc4ccc(C(=O)N5CCNCC5)cc4o3)NC(=O)NC1=O)C2 [Compound 2424]			0.98 nM			AUC [2, 6]: 0.013 µM·h; IC50 [3, 7]: 702 nM
COc1ccc2c(c1)C(=O)N(C[C@@]1(c3cc4nc(N5CCCCC5=O)ccc4o3)NC(=O)NC1=O)C2 [Compound 1512]			1.3 nM	0.303 µM·h	1550 nM	
COc1ccc2c(c1)C(=O)N(C[C@@]1(c3cc4cc(-c5ccnc(N)n5)ccc4o3)NC(=O)NC1=O)C2 [Compound 2245]	6.03 µM·h	1060 nM	0.456 nM			
COc1ccc2c(c1F)C(=O)N(C[C@@]1(c3cc4cc5c(c(F)c4o3)C(=O)N(C)C5)NC(=O)NC1=O)C2 [Compound 2502]			0.69 nM			AUC [2, 6]: 3.12 µM·h; IC50 [3, 7]: 381 nM
COc1ccc2c(c1F)C(=O)N(C[C@@]1(c3cc4cc5c(c(F)c4o3)C(=O)NC5)NC(=O)NC1=O)C2 [Compound 2499]			0.33 nM			AUC [2, 6]: 1.08 µM·h; IC50 [3, 7]: 72 nM
COc1ccc2c(c1F)C(=O)N(C[C@@]1(c3cc4ncc(C(=O)NC5CC5)cc4o3)NC(=O)NC1=O)C2 [Compound 1909]			1.15 nM	0.066 µM·h	585 nM	
COc1ccc2c(c1)C(=O)N(C[C@@]1(c3cc4cc(-c5cccnc5)ccc4o3)NC(=O)NC1=O)C2 [Compound 2195]	1.16 µM·h	2120 nM				Ki ([1]; Ki): 0.966 nM

SMILES	AUC ([2]; plasma 0.5-6 h post-dosing)	IC50 [3, 4]	Ki ([1]; read-out: Ki)	AUC ([2]; plasma 0.5-6 h)	IC50 [3, 5]	also measured
COc1ccc2c(c1)C(=O)N(C[C@@]1(c3cc4cc(NC(C)=O)cnc4o3)NC(=O)NC1=O)C2 [Compound 2295]			1.31 nM			AUC [2, 6]: 0.044 µM·h; IC50 [3, 7]: 222 nM
CCN1CCN(c2ccc3oc([C@]4(CN5Cc6ccc(OCC7CC7)c(F)c6C5=O)NC(=O)NC4=O)cc3n2)CC1 [Compound 900]			0.52 nM	0.024 µM·h	290 nM	
COc1ccc2c(c1)C(=O)N(C[C@@]1(c3cc4c(OC)nccc4o3)NC(=O)NC1=O)C2 [Compound 2307]			0.437 nM			AUC [2, 6]: 41.4 µM·h; IC50 [3, 7]: 604 nM
COc1ccc2c(c1)C(=O)N(C[C@@]1(c3cc4c(Cl)nccc4o3)NC(=O)NC1=O)C2 [Compound 2278]	12.1 µM·h	260 nM	0.637 nM			
CCOc1ccc2c(c1F)C(=O)N(C[C@@]1(c3cc4nc(N5CCN(CC)CC5)ccc4o3)NC(=O)NC1=O)C2 [Compound 903]			0.557 nM	1 µM·h	193 nM	
COc1ccc2c(c1)C(=O)N(C[C@@]1(c3cc4cc(CNCCN(C)C)ccc4o3)NC(=O)NC1=O)C2 [Compound 2177]	0.069 µM·h	278 nM	0.711 nM			
COc1ccc2c(c1)C(=O)N(C[C@@]1(c3cc4nc(N5CCC[C@@H](O)C5)ccc4o3)NC(=O)NC1=O)C2 [Compound 2170]	0.414 µM·h	189 nM				Ki ([1]; Ki): 0.415 nM
COc1ccc2c(c1)C(=O)N(C[C@@]1(c3cc4c(o3)CCN(C)C4)NC(=O)NC1=O)C2 [Compound 2263]	0.24 µM·h	≥ 1000 nM	7.71 nM			
COc1ccc2c(c1)C(=O)N(C[C@@]1(c3cc4cnc(C)nc4o3)NC(=O)NC1=O)C2 [Compound 2309]			0.594 nM			AUC [2, 6]: 18 µM·h; IC50 [3, 7]: 624 nM
COc1ccc2c(c1F)C(=O)N(C[C@@]1(c3cc4ncc(C(N)=O)cc4o3)NC(=O)NC1=O)C2 [Compound 1908]			0.42 nM	0.094 µM·h	136 nM	
COc1ccc2c(c1)C(=O)N(C[C@@]1(c3cc4ccc(C(=O)NCCN(C)C)cc4o3)NC(=O)NC1=O)C2 [Compound 2412]			0.32 nM			AUC [2, 6]: 0.104 µM·h; IC50 [3, 7]: 115 nM
CCN1CCC(c2nc3cc([C@]4(CN5Cc6ccc(OC)c(F)c6C5=O)NC(=O)NC4=O)oc3cc2F)CC1 [Compound 1325]			1 nM	0.009 µM·h	175 nM	
COc1ccc2c(c1F)C(=O)N(C[C@@]1(c3cc4nc(C)c(F)cc4o3)NC(=O)NC1=O)C2 [Compound 1312]			0.74 nM	38.3 µM·h	911 nM	
COc1ccc2c(c1F)C(=O)N(C[C@@]1(c3cc4nc(C5=CCNCC5)c(F)cc4o3)NC(=O)NC1=O)C2 [Compound 1320]				0.101 µM·h	55 nM	Ki ([1]; Ki): 0.37 nM
COc1ccc2c(c1)C(=O)N(C[C@@]1(c3cc4c(-c5ccncc5)nccc4o3)NC(=O)NC1=O)C2 [Compound 2236]	0.02 µM·h	949 nM	0.54 nM			
COc1ccc2c(c1)C(=O)N(C[C@@]1(c3cc4nc(N5CCOCC5)ccc4o3)NC(=O)NC1=O)C2 [Compound 2163]	3.64 µM·h	1120 nM	0.563 nM			
COc1ccc2c(c1F)C(=O)N(C[C@@]1(c3cc4nc(N5CCC5=O)ccc4o3)NC(=O)NC1=O)C2 [Compound 1522]			0.3 nM	4.63 µM·h	211 nM	
COc1ccc2c(c1)C(=O)N(C[C@@]1(c3cc4c(C)nc(C)cc4o3)NC(=O)NC1=O)C2 [Compound 2257]	4.23 µM·h	676 nM	0.53 nM			
COc1ccc2c(c1)C(=O)N(C[C@@]1(c3cc4nc(-c5cccc(C#N)c5)ccc4o3)NC(=O)NC1=O)C2 [Compound 2470]			0.578 nM			AUC [2, 6]: 22.1 µM·h; IC50 [3, 7]: 803 nM
COc1ccc2c(c1F)C(=O)N(C[C@@]1(c3cc4nc(-n5cccn5)ccc4o3)NC(=O)NC1=O)C2 [Compound 1524]			0.3 nM	8 µM·h	557 nM	
COc1ccc2c(c1F)C(=O)N(C[C@@]1(c3cc4nc(-c5ccc(N)nc5)c(F)cc4o3)NC(=O)NC1=O)C2 [Compound 1318]			0.36 nM	0.863 µM·h	87 nM	
COc1ccc2c(c1)C(=O)N(C[C@@]1(c3cc4nc(N)ccc4o3)NC(=O)NC1=O)C2 [Compound 1936]				0.424 µM·h	187 nM	Ki ([1]; Ki): 0.51 nM
COc1ccc2c(c1F)C(=O)N(C[C@@]1(c3cc4nc(N5C(=O)CCC5C)ccc4o3)NC(=O)NC1=O)C2 (stereo partly drawn) [Compound 1510]			0.4 nM	5.19 µM·h	263 nM	

From US8569336B2, “Compounds for the treatment of inflammatory disorders” (priority 2008, dated 2013)
